# Reference: patent US20240174669A1, “CRYSTALLINE FORMS OF A PARP1 INHIBITOR” (XinThera, Inc., priority 2022, published 2024)
# Assay: Solubility estimation at RT by visual observation in solvent systems
# Format: physicochemical
# Conditions: organic solvent or mixture, thermodynamic from solid
# Procedure: The solubility of compound 1 was estimated at RT by visual observation in 11 solvent systems. Approximately 5 mg solids were weighed into 8 mL glass vial, and then solvent was added stepwise until solids were dissolved completely or a total of solvent volume reached 5 mL. […] The solubility was estimated and for reference only.
compound,measurement,setting,value
"CNC(=O)c1ccc(N2CCN(Cc3cnc4cc(C5CC5)c(=O)[nH]c4c3)CC2)cn1 [Starting material, 5-(4-((7-cyclopropyl-6-oxo-5,6-dihydro-1,5-naphthyridin-3-yl)methyl)piperazin-1-yl)-N-methylpicolinamide]",solubility,"most of the 11 tested solvent systems, RT, most tested solvents, except DMSO",< 5 mg/mL
same,solubility,"estimated at RT, visual observation, DMSO",20 to 50 mg/mL
same,solubility,"estimated at RT, Acetone, ACN, Toluene, EA, n-Heptane, Water, Anisole, DCM, THF",< 1 mg/mL
same,solubility,"estimated, visual observation, MeOH, THF (50° C.)",1 to 5 mg/mL
